Experimental data as given in ChEMBL document CHEMBL1201862, “PubChem BioAssay data set” (2004).
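A five-concentration, 48-hour dose response in 96-well plates underlies each endpoint, interpolated linearly between surrounding concentrations. Abbreviation: GI50, concentration required for 50% inhibition of growth.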 The source made the active and inactive calls. Cut-off read from the data, not from the text of the source: active = GI50 up to about 1.1 µM and inactive = higher.

What was measured:
Test in all cases: inhibition of tumour cell growth, NCI panel, 48 h
[1] = tested on: NCI-H226
[2] = tested on: OVCAR-4
[3] = tested on: A549
[4] = tested on: MDA-MB-231
[5] = tested on: SNB-19
[6] = tested on: LOX IMVI
[7] = tested on: BT-549
[8] = tested on: SF-295
[9] = tested on: SN12C
[10] = tested on: HOP-92
[11] = tested on: UACC-62
[12] = tested on: M14
[13] = tested on: OVCAR-3
[14] = tested on: MCF7
[15] = tested on: OVCAR-8
[16] = tested on: SK-MEL-2
[17] = tested on: SF-539
[18] = tested on: SF-268
[19] = tested on: SK-MEL-5
[20] = tested on: CCRF-CEM
[21] = tested on: MDA-N
[22] = tested on: Malme-3M
[23] = tested on: SK-OV-3
[24] = tested on: SR
[25] = tested on: K562
[26] = tested on: SNB-75
[27] = tested on: ACHN
[28] = tested on: UACC-257
[29] = tested on: HCC 2998
[30] = tested on: NCI-H522
[31] = tested on: RXF 393
[32] = tested on: HOP-62
[33] = tested on: TK-10
[34] = tested on: IGROV-1
[35] = tested on: SW-620
[36] = tested on: MDA-MB-435
[37] = tested on: HL-60
[38] = tested on: COLO 205
[39] = tested on: HT-29
[40] = tested on: NCI/ADR-RES
[41] = tested on: NCI-H460
[42] = tested on: RPMI-8226
[43] = tested on: 786-0
[44] = tested on: OVCAR-5
[45] = tested on: MOLT-4
[46] = tested on: A498
[47] = tested on: U-251
[48] = tested on: Hs-578T
[49] = tested on: HCT-116
[50] = tested on: CAKI-1
[51] = tested on: SK-MEL-28
[52] = tested on: EKVX
[53] = tested on: NCI-H23
[54] = tested on: T47D
[55] = tested on: HCT-15
[56] = tested on: PC-3
[57] = tested on: DU-145
[58] = tested on: UO-31
[59] = tested on: KM12

Measured: GI50

Cc1ccc(Nc2n[nH]c(NS(=O)(=O)c3cc(C)c(Cl)cc3S)n2)cc1
inactive: [1] > 100 µM | [2] > 100 µM | [3] > 100 µM | [4] > 100 µM | [5] > 100 µM | [6] > 100 µM | [7] > 100 µM | [8] > 100 µM | [9] > 100 µM | [10] > 100 µM | [11] > 100 µM | [12] > 100 µM | [13] > 100 µM | [14] > 100 µM | [15] > 100 µM | [16] > 100 µM | [17] > 100 µM | [18] > 100 µM | [19] > 100 µM | [20] > 100 µM | [21] > 100 µM | [22] > 100 µM | [23] > 100 µM | [24] > 100 µM | [25] > 100 µM | [26] > 100 µM | [27] > 100 µM | [28] > 100 µM | [29] > 100 µM | [30] > 100 µM | [31] > 100 µM | [32] > 100 µM | [33] > 100 µM | [34] > 100 µM | [35] > 100 µM | [36] > 100 µM | [37] > 100 µM | [38] > 100 µM | [39] > 100 µM | [40] > 100 µM | [41] > 100 µM | [42] > 100 µM | [43] > 100 µM | [44] > 100 µM | [45] > 100 µM | [46] > 100 µM | [47] > 100 µM | [48] > 100 µM | [49] > 100 µM | [50] > 100 µM | [51] > 100 µM | [52] > 100 µM | [53] > 100 µM | [54] > 100 µM | [56] > 100 µM | [57] > 100 µM | [58] > 100 µM | [59] > 100 µM
> 100 µM: [55]

N#Cc1ccc(-c2nc3c(N)nc(-c4ccccc4)nc3o2)cc1
inactive: [1] > 100 µM | [2] 17.3 µM | [3] 88.7 µM | [4] 13.3 µM | [5] 55.1 µM | [6] > 100 µM | [7] > 100 µM | [8] 51.1 µM | [9] > 100 µM | [10] 31.5 µM | [11] > 100 µM | [12] > 100 µM | [13] 61.4 µM | [14] > 100 µM | [15] 12.9 µM | [16] > 100 µM | [17] 5.6 µM | [18] > 100 µM | [19] > 100 µM | [20] > 10 µM | [21] > 100 µM | [24] > 100 µM | [25] > 100 µM | [26] 72.9 µM | [27] 26.9 µM | [28] > 100 µM | [29] > 100 µM | [30] 25 µM | [31] 23.8 µM | [32] 19.7 µM | [33] > 100 µM | [34] > 100 µM | [35] > 100 µM | [36] > 100 µM | [37] > 100 µM | [38] > 100 µM | [39] > 100 µM | [40] 40.3 µM | [41] > 100 µM | [42] > 100 µM | [43] > 100 µM | [44] > 100 µM | [45] > 100 µM | [46] > 100 µM | [47] 5.11 µM | [48] > 100 µM | [49] 31.8 µM | [50] > 100 µM | [51] > 100 µM | [52] > 100 µM | [53] > 100 µM | [54] > 100 µM | [56] > 100 µM | [57] 84.1 µM | [58] > 100 µM | [59] > 100 µM
> 100 µM: [55]

CCOC(=O)/C=C(\C(=O)OCC)n1cc(C)c(=O)n(Cc2cnnn2CCCCOC(C)=O)c1=O
2.84 µM: [55]
inactive: [1] 7.43 µM | [2] 19.2 µM | [3] 24.5 µM | [4] 22.2 µM | [5] 25.4 µM | [6] 4.06 µM | [7] 8.28 µM | [8] 32.1 µM | [9] 12.1 µM | [10] 2.1 µM | [11] 15 µM | [12] 20.9 µM | [13] 13.3 µM | [14] 4.78 µM | [15] 3.37 µM | [16] 22.1 µM | [17] 2.36 µM | [18] 15.7 µM | [19] 17.1 µM | [21] 20.3 µM | [22] 1.82 µM | [23] > 62.4 µM | [24] 1.9 µM | [25] 2.64 µM | [26] 18 µM | [27] 2.06 µM | [28] 15.7 µM | [29] 21 µM | [30] 1.38 µM | [31] 2.7 µM | [32] 27 µM | [33] 5.94 µM | [34] 12.7 µM | [35] 2.32 µM | [36] 7.69 µM | [37] 1.91 µM | [38] 2.09 µM | [39] 5.98 µM | [40] 8.79 µM | [41] 12.4 µM | [42] 7.36 µM | [43] 2.96 µM | [44] 17.4 µM | [45] 2.64 µM | [46] 22.2 µM | [47] 17.3 µM | [48] 17 µM | [49] 6.53 µM | [50] 3.23 µM | [51] 7.35 µM | [52] 11.3 µM | [53] 17.1 µM | [54] 21.7 µM | [56] 16.4 µM | [57] > 41.7 µM | [58] 15 µM | [59] 16.7 µM
active: [20] 0.661 µM

CC1=C(O)C(=O)C=C2C1=CC=C1[C@@]2(C)CC[C@@]2(C)C3C[C@@H](C)C(=O)[C@@H](O)[C@]3(C)CC[C@]12C (some centres undefined)
inactive: [1] 4.44 µM | [2] 3.32 µM | [3] 13.9 µM | [4] 2 µM | [5] 4.15 µM | [6] 1.5 µM | [7] 1.75 µM | [8] 4.55 µM | [9] 2.08 µM | [10] 2.03 µM | [11] 1.79 µM | [12] 1.64 µM | [13] 1.88 µM | [14] 2.77 µM | [15] 2.39 µM | [16] 5.05 µM | [17] 2.14 µM | [18] 3.38 µM | [19] 3.35 µM | [21] 1.69 µM | [22] 1.97 µM | [23] 9.04 µM | [26] 8.38 µM | [27] 1.7 µM | [28] 2.83 µM | [29] 2.95 µM | [31] 1.9 µM | [32] 6.38 µM | [33] 1.84 µM | [34] 1.73 µM | [35] 1.24 µM | [36] 2.24 µM | [38] 1.71 µM | [39] 1.97 µM | [40] 2.97 µM | [41] 5.58 µM | [42] 1.25 µM | [44] 4.23 µM | [46] 6.32 µM | [47] 1.85 µM | [48] 4.18 µM | [49] 1.72 µM | [50] 1.47 µM | [51] 1.95 µM | [52] 2.08 µM | [53] 1.97 µM | [54] 1.64 µM | [56] 2.02 µM | [57] 1.79 µM | [58] 1.92 µM | [59] 5.86 µM
1.91 µM: [55]
active: [20] 0.33 µM | [24] 0.3 µM | [25] 0.891 µM | [30] 1.05 µM | [37] 0.641 µM | [43] 0.946 µM | [45] 0.745 µM
